Literature values in publication PMC6311693 (ACS Central Science, 2018).

Conditions: 8 mg/kg; musculoskeletal system, increases in creatine phosphokinase

In the case of `CCCCCCCCCC(=O)N[C@@H](Cc1c[nH]c2ccccc12)C(=O)N[C@H](CC(N)=O)C(=O)N[C@@H](CC(=O)O)C(=O)N[C@@H]1C(=O)NCC(=O)N[C@@H](CCCN)C(=O)N[C@@H](CC(=O)O)C(=O)N[C@H](C)C(=O)N[C@@H](CC(=O)O)C(=O)NCC(=O)N[C@H](CO)C(=O)N[C@@H]([C@H](C)CC(=O)O)C(=O)N[C@@H](CC(=O)c2ccccc2N)C(=O)O[C@@H]1C` [daptomycin], the “adverse effects in phase 1 clinical trials” value is listed as “unacceptable adverse effects”.
